# Paper PMC12195967, “Cobalt(II) Complexes of 4′–Nitro–Fenamic Acid: Characterization and Biological Evaluation” (Molecules, 2025)
# Like-named read-outs stand apart in the source and are kept apart here.
# How the values were obtained:
# DPPH radical scavenging = settings: compounds 0.1 mM, DPPH 0.1 mM in ethanol
# Description: Antioxidant compounds able to neutralize DPPH radicals are increasingly recognized due to their capability of combating cancer, slowing down the aging process and regulating inflammation. As a result, they could potentially offer protection against rheumatoid arthritis and inflammation. […] In this experiment, NDGA and BHT were used as reference compounds and measurements took place at 30 min and 60 min. […] Such low scavenging activity of DPPH radicals is rather common for metal–NSAID complexes.
# (§1) S1 Antioxidant activity assay
# (§2) The antioxidant activity of the compound was evaluated via the ability to scavenge in vitro free radicals such as DPPH and ABTS and to reduce H2O2. All the experiments were carried out at least in triplicate and the standard deviation of absorbance was less than 10% […]
# S1.1 Determination of the reducing activity of the radical DPPH
# To an ethanolic solution of DPPH (0.1 mM) an equal volume solution of the compounds (0.1 mM) in ethanol was added. Absolute ethanol was also used as control solution. The absorbance at 517 nm was recorded at room temperature after 30 and 60 min in order to examine the possible existence of a potential time−dependence of the DPPH radical scavenging activity.[1] The DPPH−scavenging activity of the compounds was expressed as the percentage reduction of the absorbance values of the initial DPPH solution (DPPH%). NDGA and BHT were used as reference compounds. […]
# CT DNA = settings: cited from earlier work
# [1] = Reduction of hydrogen peroxide; settings: compounds 0.1 mM; phosphate buffer pH 7.4; 10 min
# Description: Harmful hydroxyl radicals are released when hydrogen peroxide interacts with transition metal ions, leading to oxidative stress. Consequently, both oxidative stress and the production of reactive oxygen species could be reduced by ^•OH scavengers and H2O2 reducing agents.
# as §1
# The antioxidant activity of the compound was evaluated via the ability to scavenge in vitro free radicals such as DPPH and ABTS and to reduce H2O2. […]
# S1.3 Reduction of hydrogen peroxide
# The ability of the compounds to reduce hydrogen peroxide (H2O2) was estimated according to the method described in the literature. The reaction mixture contained 20 μL of each of the tested compounds (0.1 mM) and 5 μL H2O2 solution (40 mM) in phosphate […]
# buffer (50 mM, pH 7.4). The absorbance was measured at 230 nm after 10 min. The antioxidant activity (reduction of H2O2) of the compounds was expressed as the percentage decrease of the initial H2O2 solution (H2O2%). […]
# [2] = ABTS radical cation scavenging; settings: compounds 0.1 mM; absorbance 734 nm after 1 min
# Description: The ABTS-scavenging was measured through the discoloration of a dark green solution containing the cationic radical ABTS^•+, which was induced from the oxidation derived from hydrogen-donating antioxidants, either complexes or standards, and is often considered a marker of total oxidation capacity. […] Such an increase in activity upon coordination is expected for metal–NSAID complexes.
# as §1, §2
# S1.2 Assay of radical cation ABTS−scavenging activity
# The ABTS assay was performed to determine the activity of the compounds to scavenge the radical cation ABTS. Initially, a water solution of ABTS was prepared (2 mM).
# ABTS radical cation (ABTS+·) was produced by the reaction of ABTS stock solution with potassium persulfate (0.17 mM) and the mixture was stored in the dark at room temperature for 12−16 h before its use. The ABTS was oxidized incompletely because the stoichiometric reaction ratio of ABTS and potassium persulfate is 1:0.5. The absorbance became maximal and stable only after more than 6 h of reaction although the oxidation of the ABTS started immediately. The radical was stable in this form for more than 2 days when allowed to stand in the dark at room temperature. Afterwards, the ABTS+· solution was diluted in ethanol to an absorbance of 0.70 at 734 nm and 10 μL of diluted compounds or standards (0.1 mM) in DMSO were added. The absorbance was recorded out exactly 1 min after initial mixing.
# The ABTS–radical scavenging activity of the compounds was expressed as the percentage inhibition of the absorbance of the initial ABTS solution (ABTS%). […]
# [3] = commercially available fenamates
smiles,measurement,setting,value
"Cc1cc(C(C)(C)C)c(O)c(C(C)(C)C)c1 [BHT, butylated hydroxytoluene, reference compound]","%DPPH-scavenging ability (DPPH%), 30 min",DPPH radical scavenging,70.83 ± 0.03%
same,"%DPPH-scavenging ability (DPPH%), 60 min",DPPH radical scavenging,83.39 ± 0.39%
"CC[n+]1c(-c2ccccc2)c2cc(N)ccc2c2ccc(N)cc21 [EB, ethidium bromide]",DNA-binding constant Kb,CT DNA; classic DNA intercalator,123000 M⁻¹
"O=C1O[C@H]([C@@H](O)CO)C(O)=C1O [L-ascorbic acid, reference compound]",H2O2-reducing ability (H2O2%),[1],58.90 ± 0.52%
"CC(Cc1ccc(O)c(O)c1)C(C)Cc1ccc(O)c(O)c1 (stereo not shown) [NDGA, nordihydroguaiaretic acid, reference compound]","%DPPH-scavenging ability (DPPH%), 30 min",DPPH radical scavenging,94.33 ± 0.11%
same,"%DPPH-scavenging ability (DPPH%), 60 min",DPPH radical scavenging,90.47 ± 0.42%
"Cc1c(C)c2c(c(C)c1O)CCC(C)(C(=O)O)O2 (stereo not shown) [Trolox, 6–hydroxy–2,5,7,8–tetramethylchroman–2–carboxylic acid, reference compound]",%ABTS radical scavenging activity (ABTS%),[2],96.50 ± 0.05%
O=C(O)c1ccccc1Nc1cccc(C(F)(F)F)c1 [flufenamic acid],DNA-binding constant Kb,CT DNA; [3],270000 M⁻¹
Cc1cccc(Nc2ccccc2C(=O)O)c1C [mefenamic acid],DNA-binding constant Kb,CT DNA; [3],105000 M⁻¹
Cc1c(Cl)cccc1Nc1ccccc1C(=O)O [tolfenamic acid],DNA-binding constant Kb,CT DNA; [3],50000 M⁻¹
